Source: the CheMixHub ionic liquid set

Assay: xn = mol fraction of the nth substance listed
Settings: 101 kPa

COCCn1cc[n+](C)c1.N#C[S-] + CC1COC(=O)O1
Settings	electrical conductivity, 288.15 K [S/m]	electrical conductivity, 293.15 K [S/m]	electrical conductivity, 298.15 K [S/m]	electrical conductivity, 303.15 K [S/m]	electrical conductivity, 308.15 K [S/m]	viscosity, 288.15 K [mPa·s]	viscosity, 293.15 K [mPa·s]	viscosity, 298.15 K [mPa·s]	viscosity, 303.15 K [mPa·s]	viscosity, 308.15 K [mPa·s]
x1 = 0.1022	0.963	1.07	1.19	1.31	1.44	4.19	3.54	3.05	2.67	2.38
x1 = 0.2001	1.05	1.23	1.4	1.59	1.79	5.1	4.31	3.71	3.27	2.91
x1 = 0.3021	0.967	1.12	1.3	1.49	1.69	7.1	6.1	5.3	4.67	4.11
x1 = 0.3996	0.843	0.984	1.16	1.33	1.53	11	9.2	7.8	6.6	5.7
x1 = 0.5012	0.717	0.84	1	1.16	1.34	15.9	12.7	10.4	8.6	7.2
x1 = 0.6015	0.586	0.709	0.844	1.01	1.17	22.3	17.5	14	11.3	9.4
x1 = 0.7032	0.471	0.578	0.714	0.849	1	34.5	26.2	20.3	16.1	13
x1 = 0.8004	0.381	0.48	0.591	0.717	0.867	50	37.8	29	22.8	18.2
x1 = 0.9002	0.286	0.382	0.492	0.602	0.749	68	51	39.7	31.3	25
x1 = 1	0.223	0.315	0.41	0.52	0.653	86	67	53	42.1	34.4
